Where two headings read alike, the source gives them in different places.
How the values were obtained:
Physical property data = format: physicochemical
ASTM D1177 freeze point = format: physicochemical
Text: FIG. 1 illustrates the aqueous solution freeze point characteristics of the 1,3-propanediol and GM 6043 (EG). […] This could be an indication that actual protection against hard, damaging freezing is actually better, approaching the effective protection point of the EG-based product. […] We feel that the antifreeze properties of the chemistry are acceptable. Indeed a 50% solution would provide adequate protection against freezing in most geographies. TC in FIG. 1 is an internal designation for the PDO aqueous solutions at 50, 55, and 60 volume percent PDO.

## OCCO [EG, ethylene glycol]
Physical property data
  Specific Gravity: 1.115

## CC(O)CO (centres unmarked) [PG, propylene glycol]
Physical property data; 20° C.
  Specific Gravity: 1.032

## OCCCO [PDO, 1,3-propanediol]
ASTM D1177 freeze point; 55% in water
  Freeze protection: equivalent to 50% EG
ASTM D1177 freeze point; aqueous solution
  Appearance at the reported freeze point: soft and slushy
Physical property data; 20° C.
  Specific Gravity: 1.0526

— US7452479B2, “Chemical base for fuel cell engine heat exchange coolant/antifreeze comprising 1,3-propanediol” (Shell Oil Company, priority 2001, dated 2008)
